Columns and labels:
barnyardgrass [1] = assay: Test A pre-/postemergence herbicide test; type: in vivo, Echinochloa crus-galli
Summary of the method: (§1)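 Greenhouse injury scoring (0–100, complete control = 100) at approximately ten days follows simultaneous pre- and postemergence application. Soil received a directed spray after seeding; seedlings of 2–10 cm at the one- to two-leaf stage were sprayed to runoff.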

large crabgrass [2] = assay: Test A pre-/postemergence herbicide test; type: in vivo, Digitaria sanguinalis
Summary of the method: as §1

giant foxtail [3] = assay: Test A pre-/postemergence herbicide test; type: in vivo, Setaria faberi
Summary of the method: as §1

morningglory [4] = assay: Test A pre-/postemergence herbicide test; type: in vivo, Ipomoea spp.
Summary of the method: as §1

redroot pigweed = assay: Test A pre-/postemergence herbicide test; type: in vivo, Amaranthus retroflexus
Summary of the method: as §1

velvetleaf [5] = assay: Test A pre-/postemergence herbicide test; type: in vivo, Abutilon theophrasti
Summary of the method: as §1

barnyardgrass [6] = assay: Test B pre-/postemergence herbicide test; type: in vivo, Echinochloa crus-galli; conditions: for Barnyardgrass plant response rating: postemergence
Summary of the method: (§2)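 Formulation: non-phytotoxic solvent mix with surfactant. Timing: preemergence on seed and postemergence on 2–18 cm plants, applied concurrently. Readout after 13–15 d greenhouse: visual 0–100 control rating against controls.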

Surinam grass = assay: Test B pre-/postemergence herbicide test; type: in vivo, Urochloa decumbens; conditions: for Surinam Grass plant response rating: postemergence
Summary of the method: (§3)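 Herbicidal effect was judged by eye on a 0–100 scale after plants stood 13 to 15 days in the greenhouse following pre- or postemergence treatment with surfactant-containing formulations.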

cocklebur = assay: Test B pre-/postemergence herbicide test; type: in vivo, Xanthium strumarium; conditions: for Cocklebur plant response rating: postemergence
Summary of the method: as §2

corn = assay: Test B pre-/postemergence herbicide test; type: in vivo, Zea mays; conditions: for Corn plant response rating: postemergence
Summary of the method: as §3

large crabgrass [7] = assay: Test B pre-/postemergence herbicide test; type: in vivo, Digitaria sanguinalis; conditions: for Crabgrass, Large plant response rating: postemergence
Summary of the method: as §3

giant foxtail [8] = assay: Test B pre-/postemergence herbicide test; type: in vivo, Setaria faberi; conditions: for Foxtail, Giant plant response rating: postemergence
Summary of the method: as §3

lambsquarters = assay: Test B pre-/postemergence herbicide test; type: in vivo, Chenopodium album; conditions: for Lambsquarters plant response rating: postemergence
Summary of the method: as §3

morningglory [9] = assay: Test B pre-/postemergence herbicide test; type: in vivo, Ipomoea coccinea; conditions: for Morningglory plant response rating: postemergence
Summary of the method: as §2

pigweed = assay: Test B pre-/postemergence herbicide test; type: in vivo, Amaranthus retroflexus; conditions: for Pigweed plant response rating: postemergence
Summary of the method: as §3

rice [10] = assay: Test B pre-/postemergence herbicide test; type: in vivo, Oryza sativa; conditions: preemergence
Summary of the method: as §3

velvetleaf [11] = assay: Test B pre-/postemergence herbicide test; type: in vivo, Abutilon theophrasti; conditions: for Velvetleaf plant response rating: postemergence
Summary of the method: as §3

blackgrass = assay: Test B postemergence herbicide test; type: in vivo, Alopecurus myosuroides; conditions: postemergence
Summary of the method: (§4)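 Scale 0–100: zero equals no visible effect, 100 complete control, judged by eye relative to controls. Timing: 13 to 15 days in greenhouse post-treatment. Growth stage at spraying: two leaves (paddy) or one to four leaves, 2–18 cm (postemergence).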

wheat = assay: Test B postemergence herbicide test; type: in vivo, Triticum aestivum; parameters: key to Wheat plant response rating: 0 = no effect, 100 = complete control; conditions: postemergence
Summary of the method: (§5)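 Each value is a visual 0–100 response rating taken against controls 13 to 15 days after treatment in the greenhouse. Plants received formulated chemical postemergence at the 1- to 4-leaf stage or, in flooded paddy, at the 2-leaf stage.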

wild oat = assay: Test B postemergence herbicide test; type: in vivo, Avena fatua; conditions: postemergence
Summary of the method: as §5

rice [12] = assay: Test B flooded paddy test; type: in vivo, Oryza sativa; conditions: 1000 g ai/ha, scale 0 to 100 (0 no effect, 100 complete control)
Summary of the method: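 Treated at 2-leaf (paddy) or 1–4-leaf, 2–18 cm (postemergence); greenhouse 13–15 d; visual score vs control, 0 none to 100 complete control; dash = not tested.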

[13] = test system: small flower umbrella sedge; assay: Test B flooded paddy test; type: in vivo, Cyperus difformis; conditions: 1000 g ai/ha, scale 0 to 100 (0 no effect, 100 complete control)
Summary of the method: as §4

ducksalad = assay: Test B flooded paddy test; type: in vivo, Heteranthera limosa; conditions: 1000 g ai/ha, scale 0 to 100 (0 no effect, 100 complete control)
Summary of the method: as §4

barnyardgrass [14] = assay: Test B flooded paddy test; type: in vivo, Echinochloa crus-galli; conditions: 1000 g ai/ha, scale 0 to 100 (0 no effect, 100 complete control)
Summary of the method: as §4

[15] = Postemergence, 500 g ai/ha, 0 to 100 scale, 0 no effect, 100 complete control
[16] = Postemergence, 2000 g ai/ha, 0 to 100 scale, 0 no effect, 100 complete control
[17] = Preemergence, 2000 g ai/ha, visual rating, 0 to 100 scale (0 no effect, 100 complete control)
[18] = preemergence, 500 g ai/ha, visual injury, 0 to 100 scale (0 no effect, 100 complete control)
[19] = 125 g ai/ha, 0 is no effect, 100 is complete control, preemergence
[20] = 125 g ai/ha, visual rating, scale 0 (no effect) to 100 (complete control)
[21] = 500 g ai/ha, visual rating, 0 = no effect, 100 = complete control, preemergence
[22] = 500 g ai/ha, scale 0 to 100, 0 is no effect, 100 is complete control

C#CCNC(=O)c1cccc(NC(=O)c2cc(C(C)(C)C)nn2C)n1 [Compound 316]
Barnyardgrass plant response rating (barnyardgrass [1]; [15]): 20
Plant response rating, Barnyardgrass (barnyardgrass [1]; [16]): 45
Barnyardgrass plant response rating (barnyardgrass [1]; [17]): 10
Barnyardgrass plant response rating (barnyardgrass [1]; [18]): 0
Crabgrass, Large plant response rating (large crabgrass [2]; [15]): 25
Plant response rating, Crabgrass, Large (large crabgrass [2]; [16]): 45
Crabgrass, Large plant response rating (large crabgrass [2]; [17]): 35
Crabgrass, Large plant response rating (large crabgrass [2]; [18]): 10
Foxtail, Giant plant response rating (giant foxtail [3]; [15]): 20
Plant response rating, Foxtail, Giant (giant foxtail [3]; [16]): 30
Foxtail, Giant plant response rating (giant foxtail [3]; [17]): 0
Foxtail, Giant plant response rating (giant foxtail [3]; [18]): 0
Morningglory plant response rating (morningglory [4]; [15]): 20
Plant response rating, Morningglory (morningglory [4]; [16]): 30
Morningglory plant response rating (morningglory [4]; [17]): 0
Morningglory plant response rating (morningglory [4]; [18]): 0
Pigweed plant response rating (redroot pigweed; [15]): 25
Plant response rating, Pigweed (redroot pigweed; [16]): 80
Pigweed plant response rating (redroot pigweed; [17]): 65
Pigweed plant response rating (redroot pigweed; [18]): 0
Velvetleaf plant response rating (velvetleaf [5]; [15]): 15
Plant response rating, Velvetleaf (velvetleaf [5]; [16]): 20
Velvetleaf plant response rating (velvetleaf [5]; [17]): 15
Velvetleaf plant response rating (velvetleaf [5]; [18]): 5
Plant response rating (0 to 100 scale), Barnyardgrass (barnyardgrass [6]; [19]): 0
Barnyardgrass plant response rating (barnyardgrass [6]; [20]): 0
Plant response rating, Barnyardgrass (barnyardgrass [6]; [21]): 0
Barnyardgrass plant response rating (barnyardgrass [6]; [22]): 40
Plant response rating (0 to 100 scale), Surinam Grass (Surinam grass; [19]): 0
Surinam Grass plant response rating (Surinam grass; [20]): 10
Plant response rating, Surinam Grass (Surinam grass; [21]): 0
Surinam Grass plant response rating (Surinam grass; [22]): 10
Plant response rating (0 to 100 scale), Cocklebur (cocklebur; [19]): 0
Cocklebur plant response rating (cocklebur; [20]): 0
Plant response rating, Cocklebur (cocklebur; [21]): 0
Cocklebur plant response rating (cocklebur; [22]): 20
Plant response rating (0 to 100 scale), Corn (corn; [19]): 0
Corn plant response rating (corn; [20]): 10
Plant response rating, Corn (corn; [21]): 0
Corn plant response rating (corn; [22]): 20
Plant response rating (0 to 100 scale), Crabgrass, Large (large crabgrass [7]; [19]): 0
Crabgrass, Large plant response rating (large crabgrass [7]; [20]): 10
Plant response rating, Crabgrass, Large (large crabgrass [7]; [21]): 20
Crabgrass, Large plant response rating (large crabgrass [7]; [22]): 10
Plant response rating (0 to 100 scale), Foxtail, Giant (giant foxtail [8]; [19]): 0
Foxtail, Giant plant response rating (giant foxtail [8]; [20]): 0
Plant response rating, Foxtail, Giant (giant foxtail [8]; [21]): 0
Foxtail, Giant plant response rating (giant foxtail [8]; [22]): 20
Plant response rating (0 to 100 scale), Lambsquarters (lambsquarters; [19]): 0
Lambsquarters plant response rating (lambsquarters; [20]): 40
Plant response rating, Lambsquarters (lambsquarters; [21]): 60
Lambsquarters plant response rating (lambsquarters; [22]): 70
Plant response rating (0 to 100 scale), Morningglory (morningglory [9]; [19]): 0
Morningglory plant response rating (morningglory [9]; [20]): 10
Plant response rating, Morningglory (morningglory [9]; [21]): 0
Morningglory plant response rating (morningglory [9]; [22]): 10
Plant response rating (0 to 100 scale), Pigweed (pigweed; [19]): 0
Pigweed plant response rating (pigweed; [20]): 10
Plant response rating, Pigweed (pigweed; [21]): 90
Pigweed plant response rating (pigweed; [22]): 50
Plant response rating (0 to 100 scale), Rice (rice [10]; 125 g ai/ha, 0 is no effect, 100 is complete control): 0
Plant response rating, Rice (rice [10]; 500 g ai/ha, visual rating, 0 = no effect, 100 = complete control): 0
Plant response rating (0 to 100 scale), Velvetleaf (velvetleaf [11]; [19]): 0
Velvetleaf plant response rating (velvetleaf [11]; [20]): 0
Plant response rating, Velvetleaf (velvetleaf [11]; [21]): 20
Velvetleaf plant response rating (velvetleaf [11]; [22]): 40
Blackgrass plant response rating (blackgrass; [20]): 0
Blackgrass plant response rating (blackgrass; [22]): 0
Wheat plant response rating (wheat; [20]): 0
Wheat plant response rating (wheat; [22]): 0
Oat, Wild plant response rating (wild oat; [20]): 0
Oat, Wild plant response rating (wild oat; [22]): 20
Rice plant response rating (rice [12]): 0
Sedge, Umbrella plant response rating [13]: 0
Ducksalad plant response rating (ducksalad): 0
Barnyardgrass plant response rating (barnyardgrass [14]): 0

— patent US20060069132A1, “Azolecarboxamide herbicides” (priority 2004, published 2006)
